PMC2106221 (The Journal of Cell Biology, 1963)
Read-outs that look alike come from different tables or passages of the source.

Experiments:
[1] = test system: trypsin-like amidase and esterase activity in human mast cells (mast cell enzyme(s)); format: biochemical; conditions: for time required for the appearance of visible mast cells, mean: double-blind; for time to observable mast cells at theoretical Vm: from the Lineweaver-Burk plot; for time for the demonstration of mast cells: optimal substrate concentration
[2] = biological target: T1, bovine trypsin (crystalline) (Bos taurus, UniProt P00760); format: biochemical; conditions: for Percentage inhibition 5 min.: DL-BANA 0.60 mM, enzyme 10 μg/ml
T1 sequence (P00760 24-246): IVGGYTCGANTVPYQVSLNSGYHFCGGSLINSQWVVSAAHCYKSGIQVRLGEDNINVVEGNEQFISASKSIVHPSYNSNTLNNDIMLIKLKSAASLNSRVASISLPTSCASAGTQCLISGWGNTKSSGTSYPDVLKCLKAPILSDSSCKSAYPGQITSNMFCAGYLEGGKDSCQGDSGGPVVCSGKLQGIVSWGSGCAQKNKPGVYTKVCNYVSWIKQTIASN

canine mast cells = assay: histochemical reaction in canine skin sections; format: biochemical, dog; conditions: incubation period of 1 hour
[3] = spontaneous hydrolysis of ester substrate in water/buffer; format: physicochemical
chymotrypsin = conditions: pH 7.2 ref 2; cited from earlier work
[4] = biological target: T1, bovine trypsin (crystalline); conditions: trypsin 4 X pancreatin (Nutritional Biochemical Corporation) ref 1; cited from earlier work
[5] = diazonium coupling velocity in test tube, spectrophotometric half-reaction times; format: physicochemical
[6] = Lineweaver-Burk plot, human mast cells

Cl.N=C(N)NCCCC(NC(=O)c1ccccc1)C(=O)Nc1ccc2ccccc2c1 (racemic) [DL-BANA, benzoyl-DL-arginine β-naphthylamide hydrochloride]
time required for the appearance of visible mast cells, mean ([1]; Experiment 1, DL-BANA 0.12 mM): 7.0 min | time required for the appearance of visible mast cells, mean ([1]; Experiment 2, DL-BANA 0.050 mM): 15.9 min | time to observable mast cells at theoretical Vm [1]: 2 min | time for the demonstration of mast cells ([1]; human mast cells): 5 to 6 min | Vm ([2]; in the absence of Garnet GBC): 50 mμM β-naphthylamine liberated | Vm ([2]; in the presence of Garnet GBC): 30 mμM β-naphthylamine liberated

Cl.NCCCCC(NC(=O)c1ccccc1)C(=O)Nc1ccc2ccccc2c1 (racemic) [DL-BLyNA, benzoyl-DL-lysine β-naphthylamide hydrochloride]
time to observable mast cells at theoretical Vm [1]: 2 min | time for the demonstration of mast cells ([1]; human mast cells): 5 to 6 min | reaction in canine mast cells (canine mast cells): No reaction

NC(=O)[C@H](CCCN=C(N)N)NC(=O)c1ccccc1 [BAA, benzoyl-L-arginine amide, reference compound]
nature of inhibition of DL-BANA hydrolysis [1, 6]: competitive | nature of inhibition of DL-BLyNA hydrolysis ([1]; human mast cells): competitive

COC(=O)[C@H](CCCNC(=N)N)NC(=O)c1ccccc1 [BAME, benzoyl-L-arginine methyl ester, reference compound]
nature of inhibition of DL-BANA hydrolysis [1, 6]: competitive | nature of inhibition of EACA-AS hydrolysis [1, 6]: competitive inhibitor

Cl.N=C(N)NCCC[C@@H](NC(=O)c1ccccc1)C(=O)Nc1ccc2ccccc2c1 [D-BANA, benzoyl-D-arginine β-naphthylamide hydrochloride]
nature of inhibition of DL-BANA hydrolysis [1, 6]: competitive inhibitor | hydrolysis in the mast cells ([1]; tested as substrate): not hydrolyzed | nature of inhibition of tryptic hydrolysis of L-BANA [2]: competitive inhibitor | substrate for trypsin [2]: not a substrate for trypsin

NCCCCCC(=O)Oc1cc2ccccc2cc1C(=O)Nc1ccccc1 [EACA-AS, Naphthol AS ε-aminocaproate]
substrate concentration at approximately half-maximal velocity ([1]; human mast cells, Fig. 7): ~7 #M | substrate concentration at approximately 50 per cent of the reaction velocity ([2]; trypsin, velocity calculated from the Lineweaver-Burk plot): ~20 /ZM | spontaneous hydrolysis in water ([3]; pH 5-6): insignificant | mean substrate concentration during spontaneous hydrolysis ([3]; pH 7.2, during 20 minutes): 92 per cent of the original concentration | mean substrate concentration during spontaneous hydrolysis ([3]; pH 7.2, during 30 minutes): 90 per cent of the original concentration | mean substrate concentration during spontaneous hydrolysis ([3]; pH 7.2, during the first 10 minutes): 95 per cent of the original concentration | hydrolysis by chymotrypsin relative to that of trypsin (chymotrypsin): about 10 per cent

Cc1ccccc1NC(=O)c1cc2ccccc2cc1OC(=O)CCCCCN [EACA-AS-D, Naphthol AS-D ε-aminocaproate]
results as substrate compared with EACA-AS ([1]; both biochemical and histochemical studies): essentially the same results as EACA-AS

Cc1ccccc1N=Nc1ccc([N+]#N)c(C)c1 [Garnet GBC]
Percentage inhibition 5 min. ([2]; Garnet GBC 0.05 mg/ml): 4.7% | Percentage inhibition 5 min. ([2]; Garnet GBC 0.10 mg/ml): 13.2% | Percentage inhibition 5 min. ([2]; Garnet GBC 0.20 mg/ml): 16.5% | Percentage inhibition 5 min. ([2]; Garnet GBC 0.40 mg/ml): 20.1% | Percentage inhibition 5 min. ([2]; Garnet GBC 2.00 mg/ml): 35.0% | nature of inhibition of tryptic DL-BANA hydrolysis ([2]; Lineweaver-Burk plot): uncompetitive inhibition | inhibition of Vm of DL-BANA hydrolysis by the diazonium salt ([2]; from Lineweaver-Burk plot, Fig. 6): about 40 per cent | change of hydrolysis rate after preincubation with diazonium salt ([2]; preincubation of 60 minutes prior to the addition of substrate): no more than 15 per cent | inhibition of DL-BANA hydrolysis [4]: Up to 75 per cent

Nc1ccc2ccccc2c1 [β-naphthylamine]
Half-reaction time of coupling with Garnet GBC ([5]; Garnet GBC 0.70 mg/ml, presence of Tween 20): 7 s | Half-reaction time of coupling with Garnet GBC ([5]; Garnet GBC 0.70 mg/ml, presence of albumin): 48 s | Half-reaction time of coupling with Garnet GBC ([5]; Garnet GBC 0.70 mg/ml, water, pH 7.2): 93 s | Half-reaction time of coupling with Garnet GBC ([5]; Garnet GBC 1.40 mg/ml, presence of Tween 20): 4 s | Half-reaction time of coupling with Garnet GBC ([5]; Garnet GBC 1.40 mg/ml, presence of albumin): 23 s | Half-reaction time of coupling with Garnet GBC ([5]; Garnet GBC 1.40 mg/ml, water, pH 7.2): 42 s
